# Test results as given in publication PMC12434670 (Journal of Medicinal Chemistry, 2025).
# “Also recorded” adds a separate entry of the source. Where two headings read alike, the source gives them in different places.
# How the values were obtained:
# [1] = test system: A/H1N1 (Virg09) pseudovirus; test: organism not typed; type: cell-based, influenza A virus; details: for EC50: MDCK, 72 h, read-out: EC50 for A/H1N1 (Virg09) pseudovirus entry
# [2] = test system: H1 HA protein (strain A/California/06/09); type: biochemical, influenza A virus
# [3] = test system: A/H5N1 (FL22, A/bald eagle/FL/W22-114/2022) pseudovirus; test: organism not typed; type: cell-based, influenza A virus; details: read-out: EC50 for A/H5N1 (FL22) pseudovirus entry
# MDCK cells = details: for Cytotoxicity MCC, Microscopy: dog
# [4] = test system: A/H1N1 virus A/PR/8/34 (PR8); test: microbe, parasite or virus in culture; type: cell-based; details: Influenza A virus, MDCK
# [5] = test system: A/H1N1 virus Virg09 in Calu-3 cells; test: microbe, parasite or virus in culture; type: cell-based; details: Influenza A virus, H1N1, Calu-3, 72 h, read-out: EC50 in Calu-3 cells infected with Virg09
# [6] = test system: A/H1N1 virus A/Virginia/ATCC3/2009 (Virg09); test: microbe, parasite or virus in culture; type: cell-based, influenza A virus
# A/H5N1 pseudovirus = details: read-out: EC50 against A/H5N1 pseudovirus; cited from earlier work
# A/H5N1 virus = details: read-out: EC50 against A/H5N1 virus; cited from earlier work
# A/H1N1 virus = test: microbe, parasite or virus in culture; type: cell-based, influenza A virus; details: for EC50: Influenza A virus, H1N1, MDCK, read-out: Antiviral EC50 against A/H1N1 virus
# in vitro = details: dog
# [7] = test system: H5 HA (strain A/duck/Hunan/795/2002); type: cell-based, influenza A virus
# H1 HA = H1 HA (Influenza A virus, UniProt C3W5S1); test: cell-based
# Sequence of H1 HA (C3W5S1 18-344 limits assumed): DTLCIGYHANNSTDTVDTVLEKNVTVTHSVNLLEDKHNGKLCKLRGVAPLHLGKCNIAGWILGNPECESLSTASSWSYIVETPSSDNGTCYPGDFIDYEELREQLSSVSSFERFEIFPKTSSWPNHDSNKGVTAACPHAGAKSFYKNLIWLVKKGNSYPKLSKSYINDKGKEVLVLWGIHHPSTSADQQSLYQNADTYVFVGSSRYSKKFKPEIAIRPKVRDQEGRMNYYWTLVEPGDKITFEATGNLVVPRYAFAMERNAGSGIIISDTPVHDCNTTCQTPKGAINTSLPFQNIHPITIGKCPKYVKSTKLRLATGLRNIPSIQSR
# Sequence of H1 HA (C3W5S1 345-566 limits assumed): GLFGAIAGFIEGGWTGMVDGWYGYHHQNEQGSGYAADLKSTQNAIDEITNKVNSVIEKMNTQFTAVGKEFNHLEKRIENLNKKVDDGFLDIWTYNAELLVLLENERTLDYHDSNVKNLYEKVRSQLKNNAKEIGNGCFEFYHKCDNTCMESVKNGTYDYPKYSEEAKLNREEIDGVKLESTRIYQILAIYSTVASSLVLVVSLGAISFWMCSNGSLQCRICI
# [8] = read-out: Antiviral EC50 against A/H1N1 virus, PR8 strain, MTS
# [9] = read-out: Antiviral EC50 against A/H1N1 virus, PR8 strain, Microscopy
# [10] = Influenza A virus, MDCK, read-out: Antiviral EC50 against A/H1N1 virus, Virg09 strain, MTS
# [11] = Influenza A virus, MDCK, read-out: Antiviral EC50 against A/H1N1 virus, Virg09 strain, Microscopy
# [12] = read-out: Antiviral EC50 for PR8 virus
# [13] = Influenza A virus, MDCK, read-out: Antiviral EC50 for Virg09 virus
# [14] = read-out: Antiviral EC50 against A/H1N1 virus, Virg09 strain, MTS
Structure (SMILES),"Cytotoxicity MCC, Microscopy (MDCK cells) [µM]","EC50 [4, 8] [µM]","EC50 [4, 9] [µM]","EC50 [6, 10] [µM]","EC50 [6, 11] [µM]",CC50 (in vitro) [µM],"EC50 [4, 12] [µM]","EC50 [6, 13] [µM]",Antiviral activity against A/H1N1 virus (in words) (A/H1N1 virus),also measured
"CCOC(=O)c1c(CSc2ccccc2)n(C)c2cc(Br)c(O)c(CN(C)C)c12 [Arbidol, reference compound]",,,,,,,,,,"Fold lower potency than VF-57a in pseudovirus entry [1]: ~20 fold; EC50 [1]: 15 µM; Binding of H1 HA to stem antibody C179 after acidic incubation (pH 5.2) in presence of compound [2]: only slightly protected; EC50 ([3]; MDCK, 72 h): 10 µM"
"O=C1c2c(O)c(=O)ccn2N([C@@H]2c3ccccc3SCc3c2ccc(F)c3F)[C@@H]2COCCN12 [BXA, baloxavir acid]",>0.1,0.0061 ± 0.0017,0.0061 ± 0.002,0.0032 ± 0.0004,0.0035,,,,,EC50 [5]: 0.0011 µM
O=C(NCCc1cccs1)c1cc(F)cc(C(F)(F)F)c1 [Compound 20],,,,,,,,,,EC50 (A/H5N1 pseudovirus): 0.22 µM
Cc1cc(CNS(=O)(=O)c2ccc(C#N)cc2)c(C)s1 [Compound 21],,,,,,,,,,EC50 (A/H5N1 virus): 0.47 µM
"Cc1cc(CNC(=O)c2cc(F)cc(C(F)(F)F)c2)c(C)s1 [Compound 22, N-[(2,5-Dimethylthiophen-3-yl)methyl]-3-fluoro-5-(trifluoromethyl)benzamide]",>100,1.1 ± 0.3,1.5 ± 0.6,0.4,1.7 ± 1.1,> 100,~1,~1,,"Selectivity index (ratio of CC50 to EC50, SI) (A/H1N1 virus): > 100; Cytotoxicity at 100 μM (in words) (MDCK cells): without showing any cytotoxicity; ΔΔG (exp), change VF-57a → labelled compound [6]: 0.2 kcal/mol; ΔΔG (exp), change labelled compound → VF-57a [6]: –0.2 kcal/mol; EC50 [6, 14]: 0.44 ± 0.19 µM"
"Cc1cc(CNC(=O)c2cc(Cl)cc(C(F)(F)F)c2)c(C)s1 [Compound 23, 3-Chloro-N-[(2,5-dimethylthiophen-3-yl)methyl]-5-(trifluoromethyl)benzamide]",>100,0.92 ± 0.19,1.1 ± 0.2,0.3,0.71 ± 0.45,> 100,1,0.5,,"EC50 (A/H1N1 virus): ~0.8 µM; Inhibition of H5 HA cell-cell fusion at 6.3 μM [7]: partial; Inhibition of H5 HA cell-cell fusion at 25 μM [7]: almost complete; Inhibition of H5 HA cell-cell fusion at 100 μM [7]: complete inhibition; EC50 [1]: 0.3 µM; Binding of H1 HA to stem antibody C179 after acidic incubation (pH 5.2) in presence of compound [2]: remained significantly higher; Effect of compound binding to HA (exposed to pH 7) on subsequent binding of antibody C179 ([2]; pH 7): no effect; EC50 (H1 HA): 0.95 µM; EC50 ([3]; MDCK, 72 h): 0.8 µM; EC50 [3]: 0.81 µM; EC50 [5]: 0.84 µM; EC50 [6, 14]: 0.31 ± 0.12 µM"
"Cc1cc(CNC(=O)c2cc(Br)cc(C(F)(F)F)c2)c(C)s1 [Compound 24, 3-Bromo-N-[(2,5-dimethylthiophen-3-yl)methyl]-5-(trifluoromethyl)benzamide]",,,,,,,> 100,> 100,abolished the antiviral activity,
"Cc1cc(CNC(=O)c2cc(C(F)(F)F)cc(C(F)(F)F)c2)c(C)s1 [Compound 25, N-[(2,5-Dimethylthiophen-3-yl)methyl]-3,5-bis(trifluoromethyl)benzamide]",,,,,,,> 100,> 100,abolished the antiviral activity,
"Cc1cc(Cl)cc(C(=O)NCc2cc(C)sc2C)c1 [Compound 29, 3-Chloro-N-[(2,5-dimethylthiophen-3-yl)methyl]-5-methylbenzamide]",,,,,,,> 100,> 100,No activity,
"Cc1cc(CNC(=O)c2cc(C(F)(F)F)c(F)c(F)c2F)c(C)s1 [Compound 36, N-((2,5-Dimethylthiophen-3-yl)methyl)-2,3,4-trifluoro-5-(trifluoromethyl)benzamide]",,,,,,,> 100,> 100,abolished the antiviral effect,
"Cc1cc(CNC(=O)c2cc(C(F)(F)F)cc(Cl)c2F)c(C)s1 [Compound 37, 3-Chloro-N-((2,5-dimethylthiophen-3-yl)methyl)-2-fluoro-5-(trifluoromethyl)benzamide]",56 ± 22,2.9,1.6 ± 0.8,> 100,> 100,> 100,,,less active,
"Cc1cc(CNC(=O)c2cc(Cl)c(F)c(C(F)(F)F)c2)c(C)s1 [Compound 38, 3-Chloro-N-((2,5-dimethylthiophen-3-yl)methyl)-4-fluoro-5-(trifluoromethyl)benzamide]",40,0.27 ± 0.12,1.6 ± 0.8,0.1,3.1 ± 0.5,> 100,,,good antiviral activity,"ΔΔG (exp), change VF-57a → labelled compound [6]: –0.3 kcal/mol; ΔΔG (exp), change labelled compound → VF-57a [6]: 0.3 kcal/mol; EC50 [6, 14]: 0.18 ± 0.04 µM"
"Cc1cc(CNC(=O)c2cc(Cl)cc(C(F)(F)F)c2Cl)c(C)s1 [Compound 39, 2,5-Dichloro-N-((2,5-dimethylthiophen-3-yl)methyl)-3-(trifluoromethyl)benzamide]",52 ± 25,5.9 ± 3.2,11 ± 6,0.82 ± 0.61,8.1 ± 0.5,> 100,,,less active,
"Cc1cc(CNC(=O)c2cc(Cl)c(F)c(C(F)(F)F)c2)cs1 [Compound 52, 3-Chloro-4-fluoro-N-((5-methylthiophen-3-yl)methyl)-5-(trifluoromethyl)benzamide]",>100,8.5 ± 5.6,13 ± 8,> 100,> 100,> 100,,,,
"Cc1cc(CNC(=O)c2cc(Cl)cc(C(F)(F)F)c2Cl)cs1 [Compound 53, 2,5-Dichloro-N-((5-methylthiophen-3-yl)methyl)-3-(trifluoromethyl)benzamide]",>100,17 ± 8,> 100,31 ± 3,> 100,> 100,,,,
"Cc1cc(CNC(=O)c2cc(F)cc(C(F)(F)F)c2)c(C)o1 [Compound 54, N-((2,5-Dimethylfuran-3-yl)methyl)-3-fluoro-5-(trifluoromethyl)benzamide]",100 ± 0,0.47 ± 0.19,0.54 ± 0.17,0.54 ± 0.06,3.6 ± 2.8,79 ± 5,,,,
"Cc1cc(CNC(=O)c2cc(Cl)cc(C(F)(F)F)c2)c(C)o1 [Compound 55, 3-Chloro-N-((2,5-dimethylfuran-3-yl)methyl)-5-(trifluoromethyl)benzamide]",33 ± 0,0.24 ± 0.08,0.54 ± 0.37,1.1 ± 0.3,> 100,29,,,,
"Cc1cc(COC(=O)c2cc(F)cc(C(F)(F)F)c2)c(C)s1 [Compound 63, (2,5-Dimethylthiophen-3-yl)methyl 3-fluoro-5-(trifluoromethyl)benzoate]",,,,,,,> 100,> 100,Neither the ester 63 nor the secondary amine 64 showed antiviral activity; also recorded: inactive,
"Cc1cc(CNCc2cc(F)cc(C(F)(F)F)c2)c(C)s1 [Compound 64, 1-(2,5-Dimethylthiophen-3-yl)-N-(3-fluoro-5-(trifluoromethyl)benzyl)methanamine]",,,,,,,> 100,> 100,Neither the ester 63 nor the secondary amine 64 showed antiviral activity; also recorded: inactive,
"Cc1cc(C(=O)NCc2cc(F)cc(C(F)(F)F)c2)c(C)s1 [Compound 65, N-(3-Fluoro-5-(trifluoromethyl)benzyl)-2,5-dimethylthiophene-3-carboxamide]",,,,,,,> 100,> 100,fully inactive,
"CC(C)c1ccccc1NCCN1CCCCC1 [RL-007, reference compound]",>40,1.4,1.5 ± 0.1,0.61 ± 0.06,0.69 ± 0.09,33 ± 5,,,,"EC50 (A/H1N1 virus): 0.6 to 1.5 µM; Inhibition of H5 HA cell-cell fusion at 6.3 μM [7]: inactive; Inhibition of H5 HA cell-cell fusion at 25 μM [7]: partially effective; Inhibition of H5 HA cell-cell fusion at 100 μM [7]: complete inhibition; Fold higher activity against A/H1N1 than A/H5N1 pseudovirus [1]: ~127 fold; EC50 [1]: 0.079 µM; Binding of H1 HA to stem antibody C179 after acidic incubation (pH 5.2) in presence of compound [2]: remained significantly higher; EC50 (H1 HA): 4.1 µM; EC50 ([3]; MDCK, 72 h): 10 µM; EC50 [5]: 0.53 µM"
"NC(=O)c1ncn([C@@H]2O[C@H](CO)[C@@H](O)[C@H]2O)n1 [Ribavirin, reference compound]",80 ± 20,38 ± 3,27 ± 1,20 ± 2,25,> 250,,,,
